ChEMBL document CHEMBL5678818, “Discovery of potent SOS1 inhibitors that block RAS activation via disruption of the RAS-SOS1 interaction” (Proc Natl Acad Sci U S A, 2019)

Tests used:
[1] = molecular target: Testis-specific serine/threonine-protein kinase 3 (Homo sapiens) (UniProt Q96PN8); assay: Inhibition of TSSK3 (unknown origin) assessed as residual activity at 1000 nM by KINOMEscan analysis relative to control
[2] = molecular target: T1, Myotonin-protein kinase (Homo sapiens) (UniProt Q09013); assay: Inhibition of DMPK (unknown origin) assessed as residual activity at 100 nM by KINOMEscan analysis relative to control
T1 sequence (whole entry): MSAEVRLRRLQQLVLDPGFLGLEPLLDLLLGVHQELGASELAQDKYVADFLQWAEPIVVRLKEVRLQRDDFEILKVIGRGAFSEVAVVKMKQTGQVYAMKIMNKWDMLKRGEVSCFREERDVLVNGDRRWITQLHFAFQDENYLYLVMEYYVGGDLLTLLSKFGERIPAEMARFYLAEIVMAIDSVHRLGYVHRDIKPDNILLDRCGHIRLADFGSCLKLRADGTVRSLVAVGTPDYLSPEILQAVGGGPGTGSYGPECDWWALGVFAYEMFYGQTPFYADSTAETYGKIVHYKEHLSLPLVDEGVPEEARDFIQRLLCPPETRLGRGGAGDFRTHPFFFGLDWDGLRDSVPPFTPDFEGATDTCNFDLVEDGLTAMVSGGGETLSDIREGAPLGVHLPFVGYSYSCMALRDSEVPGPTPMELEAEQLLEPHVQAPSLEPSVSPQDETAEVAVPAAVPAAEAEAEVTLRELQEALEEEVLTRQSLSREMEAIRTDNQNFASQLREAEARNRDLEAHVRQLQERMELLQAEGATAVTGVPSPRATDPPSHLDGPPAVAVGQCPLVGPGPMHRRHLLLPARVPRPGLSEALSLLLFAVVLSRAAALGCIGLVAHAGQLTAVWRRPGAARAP

[3] = molecular target: T2, Ephrin type-A receptor 6 (Homo sapiens) (UniProt Q9UF33); assay: Inhibition of EPHA6 (unknown origin) assessed as residual activity at 100 nM by KINOMEscan analysis relative to control
T2 sequence (whole entry): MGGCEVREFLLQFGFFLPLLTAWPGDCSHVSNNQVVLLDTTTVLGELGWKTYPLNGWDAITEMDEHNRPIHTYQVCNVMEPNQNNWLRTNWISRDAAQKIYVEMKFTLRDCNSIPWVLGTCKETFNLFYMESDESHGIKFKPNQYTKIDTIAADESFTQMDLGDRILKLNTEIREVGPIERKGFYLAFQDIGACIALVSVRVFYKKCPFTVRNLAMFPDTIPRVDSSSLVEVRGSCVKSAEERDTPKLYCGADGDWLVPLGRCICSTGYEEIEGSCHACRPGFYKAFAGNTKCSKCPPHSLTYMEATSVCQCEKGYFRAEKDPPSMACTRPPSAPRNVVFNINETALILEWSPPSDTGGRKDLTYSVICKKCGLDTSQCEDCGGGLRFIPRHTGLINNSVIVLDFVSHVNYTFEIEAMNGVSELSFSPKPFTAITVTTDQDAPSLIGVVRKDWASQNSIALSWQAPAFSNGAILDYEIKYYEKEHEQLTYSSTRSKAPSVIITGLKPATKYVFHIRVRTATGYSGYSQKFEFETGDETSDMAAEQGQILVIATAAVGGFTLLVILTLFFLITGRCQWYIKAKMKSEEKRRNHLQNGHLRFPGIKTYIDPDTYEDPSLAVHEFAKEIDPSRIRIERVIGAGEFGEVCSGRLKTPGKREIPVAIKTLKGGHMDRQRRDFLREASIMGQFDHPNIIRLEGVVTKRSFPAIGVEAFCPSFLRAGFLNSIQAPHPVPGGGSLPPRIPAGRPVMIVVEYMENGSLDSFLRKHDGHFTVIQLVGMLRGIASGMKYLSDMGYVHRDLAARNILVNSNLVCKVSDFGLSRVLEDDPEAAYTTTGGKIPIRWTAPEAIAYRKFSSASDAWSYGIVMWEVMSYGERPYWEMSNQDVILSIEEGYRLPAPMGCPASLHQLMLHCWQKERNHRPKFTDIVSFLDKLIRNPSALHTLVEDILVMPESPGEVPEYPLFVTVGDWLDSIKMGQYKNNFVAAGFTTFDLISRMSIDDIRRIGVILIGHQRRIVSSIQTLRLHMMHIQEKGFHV

[4] = tested on: Proto-oncogene tyrosine-protein kinase receptor Ret (Homo sapiens), P07949 [V804L]; assay: Inhibition of RET V804L mutant (unknown origin) assessed as residual activity at 100 nM by KINOMEscan analysis relative to control
[5] = molecular target: Serine/threonine-protein kinase OSR1 (Homo sapiens) (UniProt O95747); assay: Inhibition of OSR1 (unknown origin) assessed as residual activity at 100 nM by KINOMEscan analysis relative to control
Serine/threonine-protein kinase OSR1 (Homo sapiens), sequence (O95747 whole entry, looked up): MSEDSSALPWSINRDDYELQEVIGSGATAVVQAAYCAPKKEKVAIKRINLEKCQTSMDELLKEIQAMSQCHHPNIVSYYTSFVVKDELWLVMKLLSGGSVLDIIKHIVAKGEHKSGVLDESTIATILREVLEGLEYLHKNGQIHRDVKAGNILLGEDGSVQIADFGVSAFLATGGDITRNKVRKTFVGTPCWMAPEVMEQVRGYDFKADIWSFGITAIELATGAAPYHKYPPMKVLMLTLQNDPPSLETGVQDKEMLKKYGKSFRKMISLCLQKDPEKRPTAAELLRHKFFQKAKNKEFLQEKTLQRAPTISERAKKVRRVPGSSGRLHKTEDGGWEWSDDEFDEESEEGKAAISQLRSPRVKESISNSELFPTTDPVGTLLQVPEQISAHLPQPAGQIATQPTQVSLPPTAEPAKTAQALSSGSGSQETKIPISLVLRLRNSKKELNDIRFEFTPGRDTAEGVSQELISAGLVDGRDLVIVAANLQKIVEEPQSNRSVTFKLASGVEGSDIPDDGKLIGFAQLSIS

Testis-specific serine/threonine-protein kinase 3 (Homo sapiens), sequence (Q96PN8 whole entry): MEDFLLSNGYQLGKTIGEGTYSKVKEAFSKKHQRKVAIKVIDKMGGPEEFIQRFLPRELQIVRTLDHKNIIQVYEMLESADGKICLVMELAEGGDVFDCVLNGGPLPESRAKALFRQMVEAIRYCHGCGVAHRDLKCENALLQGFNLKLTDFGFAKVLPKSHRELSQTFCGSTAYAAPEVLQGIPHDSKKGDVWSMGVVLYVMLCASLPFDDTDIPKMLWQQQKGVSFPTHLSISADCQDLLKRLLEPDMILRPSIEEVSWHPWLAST
Proto-oncogene tyrosine-protein kinase receptor Ret (Homo sapiens), P07949 [V804L], sequence (P07949 whole entry V804L): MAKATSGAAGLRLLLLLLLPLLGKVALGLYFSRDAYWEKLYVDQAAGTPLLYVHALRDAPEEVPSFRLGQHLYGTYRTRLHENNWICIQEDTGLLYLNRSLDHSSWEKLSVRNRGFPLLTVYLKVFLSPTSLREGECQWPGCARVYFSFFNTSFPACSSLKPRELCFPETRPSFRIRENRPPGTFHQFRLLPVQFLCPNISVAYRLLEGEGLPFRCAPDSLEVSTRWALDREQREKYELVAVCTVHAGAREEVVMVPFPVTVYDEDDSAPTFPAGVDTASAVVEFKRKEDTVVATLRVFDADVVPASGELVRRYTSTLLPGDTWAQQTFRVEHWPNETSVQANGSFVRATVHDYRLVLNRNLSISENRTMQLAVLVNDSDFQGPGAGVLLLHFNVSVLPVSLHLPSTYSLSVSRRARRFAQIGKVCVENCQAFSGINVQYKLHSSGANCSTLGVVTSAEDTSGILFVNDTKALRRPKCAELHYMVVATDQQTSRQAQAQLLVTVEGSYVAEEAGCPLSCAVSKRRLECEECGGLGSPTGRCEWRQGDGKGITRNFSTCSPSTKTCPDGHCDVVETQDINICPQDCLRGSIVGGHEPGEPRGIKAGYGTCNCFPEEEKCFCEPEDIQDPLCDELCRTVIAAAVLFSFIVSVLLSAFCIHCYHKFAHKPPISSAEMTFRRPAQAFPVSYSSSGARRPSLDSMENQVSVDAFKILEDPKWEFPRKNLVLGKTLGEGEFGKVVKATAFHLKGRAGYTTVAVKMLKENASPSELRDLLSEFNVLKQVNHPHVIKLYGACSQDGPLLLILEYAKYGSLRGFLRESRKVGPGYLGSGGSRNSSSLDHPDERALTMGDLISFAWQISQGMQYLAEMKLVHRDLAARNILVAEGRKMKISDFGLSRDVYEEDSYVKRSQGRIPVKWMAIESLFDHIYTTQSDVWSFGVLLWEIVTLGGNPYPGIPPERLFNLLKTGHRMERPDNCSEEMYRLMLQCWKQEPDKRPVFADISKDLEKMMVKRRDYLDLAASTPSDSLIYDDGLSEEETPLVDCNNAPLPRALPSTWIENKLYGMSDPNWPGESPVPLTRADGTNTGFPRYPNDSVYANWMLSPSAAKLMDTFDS

Row | Structure (SMILES) | Activity [1] | Activity [2] | Activity [3] | Activity [4] | Activity [5]
1 | COc1cc2nc(C)nc(N[C@H](C)c3cccc(-c4cn[nH]c4)c3)c2cc1OC | 77% | – | – | – | –
2 | COc1cc2ncnc(N[C@H](C)c3cccc4ccccc34)c2cc1OC | – | 100% | 77% | 99% | 89%
